Measurements: patent US12435061B2 (priority 2020, dated 2025)
Converted amounts (≈) assume the structure as drawn. Like-named read-outs stand apart in the source and are kept apart here.

Assays:
[1] = target: T1, hTRPV3 (Homo sapiens (Human), UniProt Q8NET8); test: Semi-auto patch clamp recording in nHEK cells (WT or TRPV3-mu transfected); format: cell-based
Experimental: Compounds were tested at room temperature using the whole-cell patch clamp technique with a HEKA EPC 10 usb patch-clamp amplifier (HEKA Elektronik, Germany). Output signals from the amplifier were digitized and recorded with PatchMaster (v2x90.5 HEKA Elektronik, Germany). For quality control, the minimum seal resistance was set at 100 MΩ, and the outward current was stabilized with at least 1 nA of rectifying current at +80 mV while the inward current was stabilized with at least 300 pA of rectifying current at −80 mV.
NPC-1 Chips (Nanion, Germany) were used to trap a single cell. For both WT or transfected cells, chips of the categories 2-3 MOhm and 3-5 MOhm were used. Chips are disposable and each recording required a new chip. 5 μl of internal solution was applied in the inner pore of the chip, then it was screwed on top of the inner electrode. The upper unit of the patch lamp device was assembled over the chip, and 15 μl external buffer were added between the chip pore and the external electrode.
Basal nHEK cells at Passage 2 or 3 and at the density of 70-90% confluency were used for patch clamp or transfection. For patch-clamp, cells were suspended in TrypLE enzyme for 5 min in 37° C., and then harvested using KBM-Gold media. Cells were then centrifuged for 5 min at 110 g RT. Supernatant was then removed, and cells were re-suspended in the KBM-Gold media and maintained at RT until patch-clamp. After patch clamp system was initialized, and once cell was capture on the chip, media was washed together with free cells, and replaced by external buffer. For TRPV3-mu transfected cells, cells were maintained in KBM-Gold media containing 3 uM of the tested antagonist.
nHEK cells were transfected according to SOP KP-Lab-001.For patch clamp, cells were seeded in 12 well plate and harvested 24 hours after transfection according to the SOP section 2.8.2 “Cell preparation for patch clamp”.
For WT nHEK cells, the “intermediate protocol” in the semi-automatic Port-a-Patch device software was selected based on the parameters: initial sealing, measured by resistance, and its ability to maintain sealing along with assay.
The procedure was started with the “Startup procedure” protocol that validates chip contact and adjusts offset, then after the system was ready, 5 μl of cells suspended in extracellular buffer was added and the intermediate protocol was automatically launched.
When a cell was trapped by vacuum, the value “v-membrane” was raised by 100%, then 15 μl of sealing solution was added. The procedure continued automatically through all its steps until the final step “maintain the whole-cell”. At this step, the sealing solution was washed using three 20 μl washes with an external buffer, and the values C-fast and C-slow were adjusted twice using the “Auto E” buttons.
The sensitivity of reading was adjusted by changing the gain from 2.0 to 0.5.
To initiate recording, the “Ramp” protocol was initiated, and currents were recorded for several minutes until the signal remained stable for both inward and outward currents.
For TRPV3-mu transfected nHEK cells, a similar procedure was used, but with “Fragile protocol”, and the addition of the antagonist at the step of sealing.
Nanion's system automatically maintained cells in the holding potential of −40 mV. Then the voltage was ramped from […] for 160 ms. Finally, the voltage was stepped back to the holding potential (−40 mV). This voltage command protocol was repeated in cycles of 400 ms (FIG. 1).
The solution was then gently mixed and current recording resumed.
Within each cellular recording, the percent of control values were calculated for each test compound concentration-current response based on peak current in the presence of the agonist and full response.
Target sequence in this assay (Q8NET8 whole entry, looked up): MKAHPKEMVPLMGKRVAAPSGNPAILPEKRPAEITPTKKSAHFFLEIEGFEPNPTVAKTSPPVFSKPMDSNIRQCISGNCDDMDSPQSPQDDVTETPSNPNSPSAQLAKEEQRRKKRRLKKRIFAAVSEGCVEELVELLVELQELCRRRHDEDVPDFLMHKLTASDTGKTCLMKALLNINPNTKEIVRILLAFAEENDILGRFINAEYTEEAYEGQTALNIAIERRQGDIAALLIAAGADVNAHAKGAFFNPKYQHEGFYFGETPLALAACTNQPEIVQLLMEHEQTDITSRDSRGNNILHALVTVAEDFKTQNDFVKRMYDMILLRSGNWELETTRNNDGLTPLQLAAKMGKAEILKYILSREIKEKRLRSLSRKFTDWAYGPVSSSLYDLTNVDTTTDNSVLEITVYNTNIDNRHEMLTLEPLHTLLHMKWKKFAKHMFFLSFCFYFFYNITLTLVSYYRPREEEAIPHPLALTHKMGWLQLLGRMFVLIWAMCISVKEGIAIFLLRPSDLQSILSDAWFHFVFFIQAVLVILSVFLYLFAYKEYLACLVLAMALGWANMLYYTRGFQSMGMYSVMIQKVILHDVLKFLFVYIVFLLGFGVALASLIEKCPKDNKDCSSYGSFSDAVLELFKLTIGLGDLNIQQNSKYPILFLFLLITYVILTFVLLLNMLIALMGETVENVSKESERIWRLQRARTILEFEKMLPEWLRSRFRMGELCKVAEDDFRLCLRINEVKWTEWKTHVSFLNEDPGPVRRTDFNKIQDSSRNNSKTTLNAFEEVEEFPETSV

[2] = target: T1, hTRPV3; test: Whole-cell patch clamp, hTRPV3 Phase 1 / Phase 2 currents; format: cell-based
Method in brief: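 Currents are activated by 20 μM 2-APB or by perfusate at 28 °C or warmer, in Ringer's solution, and quantified at ±80 mV.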
Target sequence in this assay (Q8NET8 whole entry): as the sequence (Q8NET8 whole entry, looked up) above

[3] = Aqueous solubility assay in Normal Ringer Solution; settings: Normal Ringer Solution, saline or isotonic, kinetic from dmso stock
Experimental: Following vortex and incubation for a sufficient time (e.g. 40 minutes at room temperature), solutions were filtered, quenched with acetonitrile, and analyzed by Liquid Chromotography. Solubility Limits were determined by comparison to a standard curve.

[4] = Metabolic Stability assay, rat liver microsomes; format: in vitro ADME; settings: read-out: LM T1/2 (min) rat
Method in brief: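 Reactions in human or rat liver microsomes at 37 °C were started with an NADPH-regenerating system, using 1 μM compound initially. Samples were taken at 0, 7, 15, 30 and 60 min, quenched in ice-cold acetonitrile/MeOH/H2O, and quantified by HPLC/MS/MS.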

[5] = target: human hERG channels (Homo sapiens (Human), UniProt Q12809); test: hERG assay (patch clamp, CHO cells); format: cell-based
Experimental: hERG assay: Briefly, cells from a stable CHO cell line expressing human hERG channels were plated onto glass coverslips and used in patch clamp assays on the same day. After seal formation and break-in to whole-cell configuration, voltage steps were applied as follows: from the holding potential of −90 mV, a 2 second long step to +40 mV was applied, followed by a 1.5 second step to −50 mV. These steps were applied once every 5 seconds. The hERG current was measured at the peak of the outward tail current at −50 mV. The pipette solution was potassium aspartate based and the external solution was normal Ringer's.
All currents were recorded in whole-cell configuration using an Axopatch 200B controlled by pClamp 10 software (Molecular Devices). In each cell, when the current stabilized, the compound was perfused locally onto the cell. Two to three concentrations of the test compound were applied to each cell. At the end of compound testing, 10 μM verapamil was applied to completely block hERG currents and assess leak current.
Data were analyzed by computing the degree of current block after compound addition compared with the unblocked current amplitude. The unblocked current was predicted from the interpolation between the current amplitude prior to compound addition and after compound washout. The resulting percent block at each concentration was used to make a concentration-response plot and fitted to the Hill equation: percent block=minimum block+(maximum block-minimum block)/(1+10^(Hill slope*(log IC50−concentration))).

[6] = Phase 1 current, human TRPV3, read-out: hTRPV3 (nM) Phase 1
[7] = Phase 1 current, inward, whole-cell patch clamp, read-out: hTRPV3 Patch P1 Inwd

Sequence of human hERG channels (Q12809 whole entry): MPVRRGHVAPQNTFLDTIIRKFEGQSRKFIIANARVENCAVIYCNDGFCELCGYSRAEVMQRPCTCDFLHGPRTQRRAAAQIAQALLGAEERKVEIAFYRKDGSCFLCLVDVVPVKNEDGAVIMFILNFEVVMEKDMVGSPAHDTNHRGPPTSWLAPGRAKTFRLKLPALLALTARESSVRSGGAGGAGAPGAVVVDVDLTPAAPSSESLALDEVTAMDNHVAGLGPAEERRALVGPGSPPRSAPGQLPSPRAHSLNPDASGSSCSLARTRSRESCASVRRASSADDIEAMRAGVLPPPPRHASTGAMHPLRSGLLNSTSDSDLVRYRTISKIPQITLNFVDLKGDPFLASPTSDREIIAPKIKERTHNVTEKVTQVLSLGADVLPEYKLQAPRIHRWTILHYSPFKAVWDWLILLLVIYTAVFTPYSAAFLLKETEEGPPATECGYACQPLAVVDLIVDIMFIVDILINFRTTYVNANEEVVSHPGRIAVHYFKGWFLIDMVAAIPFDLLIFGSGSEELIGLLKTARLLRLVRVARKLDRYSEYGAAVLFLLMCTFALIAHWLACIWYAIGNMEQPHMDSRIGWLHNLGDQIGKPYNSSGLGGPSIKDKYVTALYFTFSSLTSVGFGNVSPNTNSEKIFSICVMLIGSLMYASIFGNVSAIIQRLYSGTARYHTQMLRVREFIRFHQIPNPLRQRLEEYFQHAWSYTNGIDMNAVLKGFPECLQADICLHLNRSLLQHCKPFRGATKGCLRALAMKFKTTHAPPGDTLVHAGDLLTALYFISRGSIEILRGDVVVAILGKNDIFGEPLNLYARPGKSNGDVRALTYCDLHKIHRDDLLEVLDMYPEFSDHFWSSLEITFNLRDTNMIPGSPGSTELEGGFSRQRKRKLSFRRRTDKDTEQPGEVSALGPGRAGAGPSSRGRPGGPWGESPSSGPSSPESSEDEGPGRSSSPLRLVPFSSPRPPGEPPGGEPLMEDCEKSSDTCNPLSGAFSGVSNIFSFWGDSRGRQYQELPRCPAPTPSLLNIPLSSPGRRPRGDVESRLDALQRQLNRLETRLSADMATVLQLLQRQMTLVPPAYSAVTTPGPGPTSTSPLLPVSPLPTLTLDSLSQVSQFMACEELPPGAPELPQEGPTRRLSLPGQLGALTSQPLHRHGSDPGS

Row | Compound | IC50 [1] | IC50 [2, 6] | IC50 [2, 7] | solubility at 40 min [3] | half-life at 1 μM [4] | IC50 ([5]; (PL), read-out: hERG (nM) (PL)) | other results
1 | CC(C)c1ccccc1-c1ccc([C@@H]2CCN(C(=O)c3ccc(F)cn3)C2)c(CO)c1 [KM-002-E2] | 0.01 to 0.1 µM |  |  |  |  |  | 
2 | Cc1nc(C(=O)N2CCC(c3ccc(-c4cc(F)ccc4C4CC4)cc3CO)C2)ccc1O (stereo not shown) [KM-085] | < 0.01 µM |  |  |  |  |  | 
3 | CNc1cncc(C(=O)N2CC[C@H](c3ccc(-c4ccccc4C4CC4)cc3CO)C2)n1 (stereo in doubt) [KM-054-E1, [3-(2′-Cyclopropyl-3-hydroxymethyl-biphenyl-4-yl)-pyrrolidin-1-yl]-(6-methylamino-pyrazin-2-yl)-methanone] | < 0.01 µM |  |  |  |  |  | 
4 | COCc1cncc(C(=O)N2CCC(c3ccc(-c4ccccc4C4CC4)cc3CO)C2)n1 (stereo not shown) [KM-070, [3-(2′-Cyclopropyl-3-hydroxymethyl-biphenyl-4-yl)-pyrrolidin-1-yl]-(6-methoxymethyl-pyrazin-2-yl)-methanone] | 0.01 to 0.1 µM |  |  |  |  |  | 
5 | COCc1cccc(C(=O)N2CCC(c3ccc(-c4ccccc4C4CC4)cc3CO)C2)n1 (stereo not shown) [KM-036] | 0.01 to 0.1 µM |  |  |  |  |  | 
6 | COc1cncc(C(=O)N2CC[C@H](c3ccc(-c4ccccc4C4CC4)cc3CO)C2)n1 (stereo in doubt) [KM-031-E1, [3-(2′-Cyclopropyl-3-hydroxymethyl-biphenyl-4-yl)-pyrrolidin-1-yl]-(6-methoxy-pyrazin-2-yl)-methanone] | 0.01 to 0.1 µM |  |  |  |  |  | 
7 | COCc1cccc(C(=O)N2CC[C@H](c3ccc(-c4ccccc4C4CC4)cc3CO)C2)n1 (stereo in doubt) [KM-036-E1, [3-(2′-Cyclopropyl-3-hydroxymethyl-biphenyl-4-yl)-pyrrolidin-1-yl]-(6-methoxymethyl-pyridin-2-yl)-methanone] | 0.01 to 0.1 µM |  |  |  |  |  | 
8 | Cc1nc(C(=O)N2CCC(c3ccc(-c4ccc(F)cc4C4CC4)cc3CO)C2)ccc1O (stereo not shown) [KM-084] | 0.01 to 0.1 µM |  |  |  |  |  | 
9 | CC(C)c1ccccc1-c1ccc([C@H]2CCN(C(=O)c3ccc(F)cn3)C2)c(CO)c1 (stereo in doubt) [KM-002-E1, (5-Fluoro-pyridin-2-yl)-[3-(3-hydroxymethyl-2′-isopropyl-biphenyl-4-yl)-pyrrolidin-1-yl]-methanone] | < 0.01 µM |  |  |  |  |  | 
10 | O=C(c1cnccn1)N1CCC(c2ccc(-c3ccccc3C3CC3)cc2CO)C1 (stereo not shown) [Compound 2-105, (3-(2′-cyclopropyl-3-(hydroxymethyl)biphenyl-4-yl)pyrrolidin-1-yl)(pyrazin-2-yl)methanone] |  | 61.2 nM | 10 to 100 nM | > 21 µM | 12.9 min | 11700 nM | 
11 | Cc1nc(C(=O)N2CC[C@H](c3ccc(-c4ccccc4C4CC4)cc3CO)C2)ccc1O (stereo in doubt) [KM-023-E1, [3-(2′-Cyclopropyl-3-hydroxymethyl-biphenyl-4-yl)-pyrrolidin-1-yl]-(5-hydroxy-6-methyl-pyridin-2-yl)-methanone] | < 0.01 µM |  |  |  |  |  | 
12 | CC(C)c1ccccc1Oc1ccc(C2CC(=O)N(Cc3ccccn3)C2)c(CO)c1 (stereo not shown) [Compound 2-93, 4-(2-(hydroxymethyl)-4-(2-isopropylphenoxy)phenyl)-1-(pyridin-2-ylmethyl)pyrrolidin-2-one] |  | 205 nM | 100 to 1000 nM | ~4.2 µM (≈ 1.75 µg/mL) | 5.05 min |  | IC50 [5]: ~5970 nM; IC50 ([5]; (M), read-out: hERG): ~10800 nM
13 | CCc1cncnc1Oc1ccc(C2CCN(C(=O)c3ncccc3Cl)C2)c(CO)c1 (stereo not shown) [Compound 2-22, (3-chloropyridin-2-yl)(3-(4-(5-ethylpyrimidin-4-yloxy)-2-(hydroxymethyl)phenyl)pyrrolidin-1-yl)methanone] |  | > 3200 nM | > 1000 nM | > 20.3 µM | 31.8 min | > 32000 nM | 
14 | CC(C)c1ccccc1Oc1ccc(C2CCN(C(=O)c3ccc(F)cn3)C2)c(CO)c1 (stereo not shown) [Compound 2-16, (5-fluoropyridin-2-yl)(3-(2-(hydroxymethyl)-4-(2-isopropylphenoxy)phenyl)pyrrolidin-1-yl)methanone] |  | 29.7 nM | 10 to 100 nM | ~4.7 µM (≈ 2.04 µg/mL) | 5.3 min | 9650 nM | IC50 ([2]; Phase 2 current, human TRPV3, read-out: hTRPV3 (nM) Phase 2): 25.7 nM; IC50 ([2]; Phase 2 current, inward, whole-cell patch clamp, read-out: hTRPV3 Patch P2 Inwd): 10 to 100 nM
15 | CCOc1ccccc1-c1ccc(C2CCN(C(=O)c3ccc(Cl)cn3)C2)c(CO)c1 (stereo not shown) [Compound 2-69, (5-chloropyridin-2-yl)(3-(2′-ethoxy-3-(hydroxymethyl)biphenyl-4-yl)pyrrolidin-1-yl)methanone] |  | 25.3 nM | 10 to 100 nM | > 16 µM | 12.6 min | 12300 nM | 
16 | CC(C)c1ccccc1Oc1ccc(C2CCN(C(=O)c3ncccc3Cl)C2)c(C(N)=O)c1 (stereo not shown) [Compound 2-26, 2-(1-(3-chloropicolinoyl)pyrrolidin-3-yl)-5-(2-isopropylphenoxy)benzamide] |  | 217 nM | 100 to 1000 nM | > 19.2 µM | 19.7 min | 10400 nM | 
17 | CC(C)c1ccccc1Oc1ccc(C2CCN(C(=O)c3cccc(Cl)n3)C2)c(CO)c1 (stereo not shown) [Compound 2-20, (6-chloropyridin-2-yl)(3-(2-(hydroxymethyl)-4-(2-isopropylphenoxy)phenyl)pyrrolidin-1-yl)methanone] |  | 62 nM | 10 to 100 nM | ~1.6 µM (≈ 0.722 µg/mL) | 8.33 min |  | IC50 [5]: ~5330 nM; IC50 ([5]; (M), read-out: hERG): 3910 nM
18 | CCc1ccccc1-c1ccc(C2CCN(C(=O)c3cc(Cl)ccn3)C2)c(CO)c1 (stereo not shown) [Compound 2-48, (4-chloropyridin-2-yl)(3-(2′-ethyl-3-(hydroxymethyl)biphenyl-4-yl)pyrrolidin-1-yl) methanone] |  | 69.3 nM | 10 to 100 nM | > 8 µM | 7.54 min | 13400 nM | 
19 | CCc1ccccc1Oc1ccc(C2CCN(C(=O)c3ncccc3Cl)C2)c(CO)c1 (stereo not shown) [Compound 2-83, (3-chloropyridin-2-yl)(3-(4-(2-ethylphenoxy)-2-(hydroxymethyl)phenyl)pyrrolidin-1-yl)methanone] |  | 95.1 nM |  | > 11 µM | 9.46 min | 16000 nM | 
